This is an account of results in patent US11980774B2, “Illumination devices and related methods for phototherapeutic light treatments in the presence of vitamins” (priority 2021, dated 2024).

The assay has as its system South African variant of SARS-CoV-2 (SARS-CoV-2 SA). It counts as cell-based. Particulars: 10 μM RFN, no ascorbate; 425 nm light 7.5 J/cm^2; FIG. 3B.

Consider `Cc1cc2nc3c(=O)[nH]c(=O)nc-3n(C[C@H](O)[C@H](O)[C@H](O)CO)c2cc1C` [riboflavin], for which the “fold reduction in viral loads of SARS-CoV-2 SA” value was found to be 642 fold, the “reduction in viral loads of SARS-CoV-2 SA” value is recorded as about 99.8% and the “reductions in viral loads of SARS-CoV-2 SA” value was “significant reductions”.
